How the values were obtained:
[1] = system: Langerhans cells and dendritic cells; assay: In vivo migration-inducing assay in mice (ear application, auricular lymph nodes); details: mouse, 5 μl of 25 mg/ml in DMSO on left ear, 24 hours
Protocol: The peptide of SEQ ID NO.16 was also tested in vivo in mice in a migration-inducing assay. In order to do this, a population of mice was used in which the EGFP gene is introduced in front of the gene for Langerin, which makes Langerhans cells naturally fluorescent. The gene encoding CCR6 is also disrupted in these mice but normal numbers of Langerhans cells are present in the epidermis. These mice are obtained by crossing two murine strains: the Langerin DTR EGFP line (Kissenpfennig A, et al. in Trends Immunol. 2006 March; 27(3):132-9. Immunity. 2005 May; 22(5):643-54) maintained at the CNRS centre for distribution, typing and archiving at Orleans, France, and subsequently available from the European Mouse Mutant Archive (EMMA, GSF National Research Centre for Environment and Health, Institute of Experimental Genetics, Ingolstädter Landstrasse 1, D-85764 Neuherberg, Munich, Germany, www.emmanet.org) under the identification number EM:01822, and the CCR6 knockout line, published by Cook et al. in Immunity, 2000, 12: 495-503 and by Lukrs et al. in J. Exp. Med., 2001, 194, 551-555.
The peptide of SEQ ID NO.16 is prepared in DMSO at a concentration of 25 mg/ml. […] The number of (naturally fluorescent) Langerhans cells is counted and the total number of dendritic cells identified by labelling with an anti-CD11c antibody.

dendritic cells = assay: In vitro assay of dendritic cell migration; format: cell-based; details: cells incubated 24 hours with the fraction or polypeptide, then migration towards MIP-3β; ESAs at final dilution 1:20; index relative to untreated control
Protocol: The migration assay involves preliminary incubation of dendritic cells with the polypeptide or fraction to be tested, and 24 hours later the cells are washed and loaded onto the upper part of a migration chamber, the lower part containing the chemokine MIP3-β. The cells that have migrated from the upper compartment to the lower compartment are counted, and migration is quantified by determining the percentage they represent of the number of cells that were initially loaded into the upper chamber. The activity of a polypeptide corresponds to the percentage of cells that have migrated.
After 4 to 6 days of differentiation, the cells obtained are frozen in liquid nitrogen and can be stored for several years.
The dendritic cells are thawed and cultured in RPMI medium with 5% FCS, gentamicin, GM-CSF and TNFα to obtain interstitial dendritic cells. […] The cells are counted 48 hours later and 300,000 cells are placed in each Falcon culture tube in a volume of 300 μl. […] After 24 hours, the tubes are recovered, and the cells are counted and resuspended in the culture medium with 1% bovine serum albumin. • 6. […]
After 24 hours, the inserts are removed and the cells that crossed them and are at the bottom of the wells are recovered and counted. The results are expressed as the percentage of cells relative to the number originally placed in the insert. […]

Substance | number of dendritic cells (CD11c) and Langerhans cells in auricular lymph nodes, treated side vs DMSO side [1] | migration of dendritic cells (migration-inducing activity, migration index) (dendritic cells)
DTGSGGDDSEGAWGGEQQQVQQHGQSEDR (Amino acids 30-58 of the sequence of GRA5 protein from PRU strain of toxoplasma gondii) [SEQ ID NO.16, fragment corresponding to amino acids 30 to 58 of the GRA5-PRU protein, prepared by peptide synthesis] | induces the migration of these cells in vivo | –
glutathione S-transferase [GST, reference compound] | – | no activity

Reference: patent publication US20100160219A1, “Novel Polypeptides Inducing Dendritic Cell Migration, as Well as Medicines and Pharmaceutical Compositions Containing Same” (priority 2006, published 2010)
